Measured values: patent US7550438B2, “Methods for production of growth-promoting proteins and peptides for kidney epithelial cells” (The University of Chicago, priority 1997, dated 2009)
Values joined by “and” are separate entries in the source; they are usually repeats but may differ in a detail not shown here. Equal values may be shown once. “Also recorded” adds a separate entry of the source. Read-outs that look alike come from different tables or passages of the source. No end group written: not given here.

Tests used:
[1] = tested on: monkey kidney epithelial cells of the BSC-1 line; test: Growth-promoting (mitogenic) activity: number of cells in BSC-1 cultures counted four days after addition; type: cell-based, African green monkey; settings: for mitogenic activity on BSC-1 cells (in words): peptide 0.5 to 20 μg/ml; for mitogenic activity on BSC-1 cells (in words) / stimulation of growth in the presence of the 14-Ser peptide: four days; for EC50: read-out: Growth-Stimulation K½; for stimulation of growth (increase in cell number compared to control at four days): agent alone at maximal mitogenic concentration (14-Ser 0.5 μg/ml; EGF, IGF-I 50 ng/ml; acidic FGF 100 pg/ml; basic FGF 1,000 pg/ml; vasopressin 75 pg/ml; K 10.4 mM; Na 180 mM); for stimulation of growth in the presence of the 14-Ser peptide: mitogenic signal at maximal concentration plus 14-Ser peptide 0.5 μg/ml
Protocol: For the assay, cells were detached from the dish with a solution of trypsin and an aliquot was counted in a hemocytometer.
Nontransformed monkey kidney epithelial cells of the BSC-1 line were grown to confluence in Dulbecco's modified Eagle's medium containing 1% calf serum and […] in 55-mm culture dishes at 38° C. in a CO2 incubator. When cells achieved a density of about 10^6 per dish, the spent medium was removed and replaced with fresh medium containing 0.5% calf serum and the 14-amino acid peptide (0.5 μg/ml). Additions of each of the mitogenic signals at maximal concentration were made to the culture medium. Four days later the number of cells in each culture was counted in a hemocytometer. Values obtained were the mean of 3 separate cultures.
Nontransformed monkey kidney epithelial cells of the BSC-1 line were grown to confluence in Dulbecco's modified Eagle's medium containing 1% calf serum and 1.6 μM biotin at 38° C. in a CO2 incubator. When cells achieved a density of about 10^6 per dish, the spent medium was removed and replaced with fresh medium containing 0.5% calf serum and different amounts of the two peptides. Four days later the number of cells in each culture was counted. Each value is the mean of 3 separate cultures.
To delineate the sequence of the smallest peptide that could stimulate renal cell growth, synthetic peptides of different lengths were prepared (see below), and purified by reversed-phase HPLC on a C18 column.
The peptide of interest was then purified on a reversed-phase C18 column HPLC as described herein using a gradient of 1-80% acetonitrile in 0.1% trifluroacetic acid (TFA). The purified peptide was then lyophilized to remove the acetonitrile and TFA and the lyophilized powder was weighed, dissolved in buffer and added to the culture medium to measure its effect on the growth of monkey kidney epithelial cells as described herein. […] A value termed the K1/2, was used.

BSC-1 cells [2] = test: Inhibition of WGF and WGF-derived peptide mitogenesis in BSC-1 cells; type: cell-based, African green monkey; settings: for effect of pentamer on growth stimulation by hexamer YPQGNH: pentamer added to culture medium, hexamer added at the same time or afterwards
Text: In these studies the pentamers, PQGNH (SEQ ID NO: 36) or YPQGN (SEQ ID NO: 3) were synthesized, purified by HPLC and then assayed for growth-promoting activity. […] Because the pentamers are not mitogenic, when they bind to the site, growth is not observed. After pentamers are bound to the site, the pentamers appear to prevent the hexapeptide from gaining access to the membrane.
Transforming growth factor (TGF)-β2 is an autocrine growth inhibitor secreted by BSC-1 cells that limits proliferation in culture. Exogenous TGF-β2 was added to the culture medium to determine its capacity to inhibit the growth-promoting effect of 14-Ser. TGF-β2 at a concentration of 1 ng/ml was sufficient to abolish the 25% stimulation of growth induced by 14-Ser. At a TGF-β2 concentration of 2 ng/ml, growth was inhibited by 30% in the presence or absence of 14-Ser; at 10 ng/ml, inhibition was 60%.
Because TGF-β2 inhibits proliferation induced by diverse mitogens, a more specific inhibitor was sought. […] Cells were preincubated for 30 minutes with the pentapeptide YPQGN (SEQ ID NO: 3). The culture medium was then aspirated, the monolayer was rinsed, fresh medium was added, and the number of cells counted 4 days later. Preincubation of cells with YPQGN (SEQ ID NO: 3) inhibited the mitogenic effect of the 6-amino acid peptide.

BSC-1 cells [3] = test: Time of contact with cells required to commit them to accelerated growth (washout, count at four days); type: cell-based, African green monkey; settings: for exposure time sufficient for maximal growth stimulation (commitment time): peptide then washed off, cells counted four days later
Protocol: Confluent monolayers of BSC-1 cells are prepared as herein and exposed to the 14-Ser peptide (0.5 μg/ml) for different amounts of time (0 to 30 minutes). At the end of the defined exposure period, culture medium containing the mitogen was aspirated, the monolayer was rinsed to remove non-adherent peptide, and fresh medium was added. Four days later the number of cells in the culture was counted.
In these experiments a solution containing the peptide of interest was added to the cell monolayer; culture medium was then aspirated at a specified time thereafter. Then fresh medium without the peptide was added and the number of cells was counted four days later.

[4] = tested on: rats with mercuric chloride-induced acute renal failure; test: Mercuric chloride-induced acute renal failure in rats: survival and renal function; type: in vivo, rat
Text: Nephrotoxic and ischemic acute renal failure (ARF) induced experimentally in rats have long been used to model this syndrome in humans. […] Male rats weighed 200-225 gm at the start of the experiment. This dose was used because preliminary experiments indicated it results in survival of 25-50% of the animals 7 days later. […] An increase in serum creatinine concentration signals a decline in renal function because the injured kidney is unable to excrete endogenous creatinine in the urine so it accumulates in the blood.
The synthetic peptide […] (14-Ser) (SEQ ID NO: 15) (dissolved in sterile 0.01% bovine serum albumin in phosphate-buffered saline) was injected subcutaneously into rats to determine its effect on survival, recovery of renal fucntion, and stimulation of DNA synthesis. Multiple different peptides were studied including 14-Ser, […] (14-mer) (SEQ ID NO: 39), […] (16-mer) (SEQ ID NO: 4) […] (11-mer) (SEQ ID NO: 6), and […] (11-mer) (SEQ ID NO: 41). Different concentrations and times of administration were tested and compared.
Acute tubular necrosis was induced in 44 rats by the subcutaneous (s.c.) injection of mercuric chloride, and a single dose of 14-ser was administered s.c. 1 hour afterwards. Different amounts of the peptide were given to assesses its capacity to affect the outcome. Survival 7 days later was about twice as high in animals given 100-150 μg of peptide (63%) than in rats given 0-75 μg peptide (29%).
To determine the effect of the peptide on survival and recovery of renal function, acute tubular necrosis was induced in 59 rats; 29 received 14-Ser (100 μg/rat) and 30 received an equal volume of the vehicle s.c. 1 hour after administration of mercuric chloride. Enhanced survival (top panel) and renal functional recovery (bottom panel) of rats give a WGF-derived peptide after mercuric chloride-induced acute tubular necrosis are shown in FIG. 2A and FIG. 2B. Mercuric chloride was injected subcutaneously into each of the 59 rats, and 1 hour later 100 μg of WGF peptide (14-Ser) (n=29 rats) or the vehicle […] was given. Survival was greater in rats given the peptide than in animals receiving the vehicle as early as day 3 after administration of mercuric chloride. Blood was obtained from the tail vein on the days indicated, and serum creatinine concentration was measured. […] On days 2, 3 and 4, the lower creatinine concentration in peptide-treated rats indicates accelerated recovery of kidney function.
Experimental ARF was induced in rats by subcutaneous injection of mercuric chloride. The synthetic peptide […] […] In one experiment a total of 17 rats were injected with a dose of mercuric chloride shown to induce ARF. The different amounts of the peptide (known to stimulate growth of kidney cells in culture) were injected into the animals to assess capacity to improve the outcome. […] In contrast, two of three rats given 100 micrograms of peptide were alive, as were five of six given 200 micrograms. In summary, none of eight rats (0%) given up to 50 micrograms of peptide survived, whereas seven of nine (78%) given 100-200 micrograms did. Thus, the 11-mer WGF peptide improves survival in nephrotoxic ARF.
[…] Four days later, 63% of rats given the 14-Ser peptide were alive compared to 25% of animals receiving the vehicle (chi squared, P-0.0499); 50% of rats receiving EGF were alive (chi squared, P=N.S.). On day 5, 50% of rats given EGF were alive, compared to 12.5% of animals given the vehicle (chi squared, P=0.0436). […] These observations indicate that the 14-Ser peptide and EGF given after renal injury are similar in their ability to improve survival from the ARF syndrome.

[5] = peptide alone, BSC-1 cells, 4 days in culture

## PQGNH
[1]
  mitogenic activity on BSC-1 cells (in words): Neither was mitogenic; also recorded: do not alter growth
BSC-1 cells [2]
  effect of pentamer on growth stimulation by hexamer YPQGNH: blocked

## YPQGNH [NH2-tyrosine-proline-glutamine-glycine-asparagine-histidine-COOH]
[1]; [5]
  EC50: 352 nM and 332 nM

## YPQGN
[1]
  mitogenic activity on BSC-1 cells (in words): Neither was mitogenic; also recorded: do not alter growth
BSC-1 cells [2]
  effect of preincubation on mitogenic effect of partially-purified Wound Growth Factor: completely abolished
  effect of pentamer on growth stimulation by hexamer YPQGNH: blocked
BSC-1 cells [2]; cells preincubated 30 minutes, rinsed, count 4 days later
  effect of preincubation on mitogenic effect of the 6-amino acid peptide YPQGNH: inhibited
BSC-1 cells [2]; preincubation for 10 or 30 minutes
  effect of preincubation on growth-promoting effect of the 14-Ser peptide: completely blocked

## acidic fibroblast growth factor [acidic FGF, reference compound]
[1]
  concentration equivalent in mitogenic potency to partially-purified WGF: 20 pg/mL
  effect of keratan sulfate on mitogenic activity: no effect
  stimulation of growth (increase in cell number compared to control at four days): 17%
  stimulation of growth in the presence of the 14-Ser peptide: 44%
[1]; heparin added to BSC-1 cells with the factor
  effect of heparin on mitogenic activity: inhibits
[1]; maximal concentrations, 11-mer with wound conditioned buffer
  combined mitogenic effect with WGF (additivity): additive

## YPEGKH
[1]; [5]
  EC50: 14100 nM

## [Cl-].[K+] [potassium chloride, reference compound]
[1]
  stimulation of growth (increase in cell number compared to control at four days): 18%
  stimulation of growth in the presence of the 14-Ser peptide: 35%

## NC(=O)CC[C@@H]1NC(=O)[C@H](Cc2ccccc2)NC(=O)[C@H](Cc2ccc(O)cc2)NC(=O)[C@@H](N)CSSC[C@@H](C(=O)N2CCC[C@H]2C(=O)N[C@@H](CCCN=C(N)N)C(=O)NCC(N)=O)NC(=O)[C@H](CC(N)=O)NC1=O [vasopressin, reference compound]
[1]
  stimulation of growth (increase in cell number compared to control at four days): 14%
  stimulation of growth in the presence of the 14-Ser peptide: 36%
BSC-1 cells [3]
  exposure time sufficient for maximal growth stimulation (commitment time): 2 min

## YPQGNHEASYG
[1]; + heparin (1 μg/ml)
  EC50: 166 nM
[1]; [5]
  EC50: 166 nM

## MAPS peptide: 11-mer AQPYPQGNHEA linked to a branched polylysine core, four branches each ligated to one 11-mer molecule (also: four copies linked to a branched polylysine core (MAPS))
[1]
  mitogenic activity on BSC-1 cells (in words): stimulated DNA synthesis and proliferation

## WAVGHLM [WAVGHLM-amide, reference compound]
[1]; [5]
  EC50: ~10000 nM

## insulin-like growth factor-I [IFG-I, reference compound]
[1]
  stimulation of growth (increase in cell number compared to control at four days): 20%
  stimulation of growth in the presence of the 14-Ser peptide: 38%

## AQPYPEGNHEA
[1]; [5]
  EC50: 206 nM
[4]; 50 micrograms s.c. two hours after mercuric chloride
  rats dead three days later: three of three
[4]; 100-200 micrograms of peptide, nine rats
  survival three days later: 78%
[4]; 100 micrograms s.c. two hours after mercuric chloride
  rats alive three days later: two of three
[4]; 200 micrograms s.c. two hours after mercuric chloride
  rats alive three days later: five of six
[4]; up to 50 micrograms of peptide (incl. saline alone), eight rats
  survival three days later: 0%

## YPQGNH [YPQGNH-amide]
[1]; [5]
  EC50: 8850 nM

## Nc1ncnc2c1ncn2[C@@H]1O[C@H](COP(=O)(O)O)[C@@H](O)[C@H]1O [adenosine monophosphate, reference compound]
BSC-1 cells [3]
  commitment time: 14 h

## Pentosan polysulfate [reference compound]
BSC-1 cells [2]
  effect on activity of WGF: blocked

## AQPYPEGNHEASYG
[1]; [5]
  EC50: 128 nM

## YPEGNH
[1]; [5]
  EC50: 301 nM
BSC-1 cells [3]; cells exposed to keratan sulfate 2 μg/ml for 5 minutes before peptide
  exposure time for maximal mitogenic effect after keratan sulfate pretreatment: 1.5 min
BSC-1 cells [3]
  exposure time sufficient for maximal growth stimulation (commitment time): 3 min

## YPEGDH
[1]; [5]
  EC50: 11000 nM

## AQPYPQGNHEAAYG
[1]; + keratan sulfate (2 μg/ml for 5 minutes prior to peptide, b158; 10 μg/ml)
  EC50: 54 nM
[1]; [5]
  EC50: 199 nM

## FPEGNH
[1]; [5]
  EC50: 2720 nM

## YPRGNH [reference compound]
[1]
  stimulation of growth (increase in cell number compared to control at four days): 10%
  mitogenic activity on BSC-1 cells (in words): not mitogenic to the same extent

## AQPYPQGNHEATSSSF
[1]; [5]
  EC50: 218 nM

## QPYPQG
[1]
  mitogenic activity on BSC-1 cells (in words): not mitogenic

## AQPYPQGNHEAQPYPQGNHEAQPYPQGNHEAQPYPQGNHE
[1]; [5]
  EC50: 7 nM
BSC-1 cells [3]
  exposure time sufficient for maximal growth stimulation (commitment time): behaved similarly

## [Cl-].[Na+] [sodium chloride, reference compound]
[1]
  stimulation of growth (increase in cell number compared to control at four days): 25%
  stimulation of growth in the presence of the 14-Ser peptide: 41%

B1: TGF-β2: autocrine growth inhibitor secreted by BSC-1 cells (protein, UniProt P61811 303-414, looked up)
Transforming growth factor …: ALDAAYCFRNVQDNCCLRPLYIDFKRDLGWKWIHEPKGYNANFCAGACPYLWSSDTQHSRVLSLYNTINPEASASPCCVSQDLEPLTILYYIGKTPKIEQLSNMIVKSCKCS
BSC-1 cells [2]; TGF-β2 1 ng/ml
  effect on the 25% stimulation of growth induced by 14-Ser: abolish
BSC-1 cells [2]; TGF-β2 2 ng/ml, in the presence or absence of 14-Ser
  growth inhibition: 30%
BSC-1 cells [2]; TGF-β2 10 ng/ml
  growth inhibition: 60%
